Key:
Format in all cases: cell-based, human
[1] = test system: HCT116 KU70^+/−; assay: Cell survival, trypan blue counting; conditions: 4.80 μM of AsiDNA and/or 0.1 μM of Ola; day 6 after treatment
Method: (§3) Cells were grown according to the supplier's instructions. Cell lines were maintained at 37° C. in a humidified atmosphere at 5% CO2.
(§4) AsiDNA or PARPi cytotoxicity was measured by relative survival and cell death quantification. Adherent cells were seeded in 24-well culture plates at appropriate densities and incubated 24 hours at 37° C. before AsiDNA and/or PARPi addition. Cells were harvested day 6aftertreatment, stained with 0.4% trypan blue (Sigma Aldrich, Saint-Louis, USA) and counted with a Burker chamber. Cell survival was calculated as ratio of living treated cells to living mock-treated cells. Cell death was calculated as the number of dead cells on the total number of counted cells. Additivity of the toxicity was calculated by the product of cell survivals to AsiDNA and cell survivals to PARPi.

[2] = test system: HCC1143; assay: Cell death and proliferation; conditions: 0.1 μM Ola, 4.8 μM AsiDNA; sensitive = difference in % dead cells higher than two-fold
Method: (§1) Efficacy of Ola and AsiDNA was assessed by measuring cell death and proliferation in 12BC cell lines including 4BRCA-mutated cell lines (FIGS. 4A and B and FIG. 5). In addition, HeLa cells silenced for BRCA1 or BRCA2 genes were used as a control of BRCA mutation factor and 3 immortalized mammary cell lines (MCF10A, MCF12A and 184B5) as non-tumor controls. The concentration of the drugs (0.1 μM for Ola and 4.8 μM for AsiDNA) were chosen based on the 75-80% survival in the BC227 BRCA2^−/− mutant. […] Ola and AsiDNA treatments had no effect on the three control non-tumor cell lines.
(§2) Cells were grown according to the supplier's instructions.

[3] = test system: HeLa CTL SX; assay: Cell survival, trypan blue counting; conditions: 4.80 μM of AsiDNA and/or 0.1 μM of Ola; day 6 after treatment
Method: as §3, §4

[4] = test system: BRCA^−/− cell lines; assay: Cell death and proliferation in BRCA-mutated cell lines; conditions: 0.1 μM Ola, 4.8 μM AsiDNA; sensitive = difference in % dead cells higher than two-fold
Method: as §1, §2

[5] = test system: MO59K; assay: Cell survival, trypan blue counting; conditions: 4.80 μM of AsiDNA and/or 0.1 μM of Ola; day 6 after treatment
Method: as §3, §4

O=C(c1cc(Cc2n[nH]c(=O)c3ccccc23)ccc1F)N1CCN(C(=O)C2CC2)CC1 [Olaparib, 4-[(3-[(4-cyclopropylcarbonyl)piperazin-4-yl]carbonyl)-4-fluorophenyl]methyl(2H)-phthalazin-1-one]
Survival (%/NT) [1]: 88.6 %/NT | sensitivity to treatment [2]: sensitive only to AsiDNA | Survival (%/NT) [3]: 105.1 %/NT | sensitivity to treatment [4]: sensitive to both treatments | Survival (%/NT) [5]: 117.3 %/NT

Reference: US10563197B2, “Use of a combination of Dbait molecule and PARP inhibitors to treat cancer” (INSTITUT CURIE, priority 2015, dated 2020)
